Experimental findings from patent EP0431741A2, “Substituted pyrimidineamino compounds” (Beecham Group p.l.c., priority 1989, dated 1991) are described below.

Experiment [1] deals with Spontaneously hypertensive rats. Put plainly: Antihypertensive activity: systolic blood pressure by tail cuff method. The following applies: for b.p. lower/dose: systolic blood pressure, spontaneously hypertensive rats; for active in test 1. (Antihypertensive Activity): result in words, no dose given. Type of experiment: in vivo. As for the experimental part: Systolic blood pressures were recorded by a modification of the tail cuff method described by I.M. Claxton, M.G. Palfreyman, R.H. Poyser, R.L. Whiting, European Journal of Pharmacology, 37, 179 (1976). A W+W BP recorder, model 8005 was used to display pulses. Prior to all measurements rats were placed in a heated environment (33.5 ± 0.5 °C) before transfer to a restraining cage. Each determination of blood pressure was the mean of at least 5 readings. Spontaneously hypertensive rats (ages 12-18 weeks) with systolic blood pressures >180 mmHg were considered hypertensive.

In another experiment the test system is trachea. Put plainly: Bronchodilator activity: relaxation of isolated tracheal spirals, relative to isoprenaline maximum. The conditions noted are these: result in words; no value given. Type of experiment: cell-based, guinea pigs. As for the experimental part:
Male guinea pigs (300-600g) were stunned by a blow to the head and bled from the carotid artery. The trachea was exposed, dissected free of connective tissue, and transferred to oxygenated Krebs solution at 37 °C. Next, spirals (2 per trachea) were prepared by cutting the whole trachea spirally along its longitudinal axis and then dividing this spiral lengthwise. Each preparation was mounted, using silk thread, in a 10ml organ bath filled with Krebs solution at 37 °C and bubbled with 5% CO₂ with O₂. The resting tension of the preparations was set at 2g and changes in muscle tension were monitored isometrically by means of a UFI (2oz) force and displacement transducer (Ormed Ltd) connected to a Linseis pen recorder. All preparations were allowed to equilibrate for 60 minutes. During this equilibration period the preparations were washed by upward displacement at 15 minute intervals and, if necessary, the resting tension was readjusted to 2g using a mechanical micromanipulator system.
Once a steady resting tension had been obtained, the preparations were dosed simultaneously with the test compound (10⁻⁸-2x10⁻⁵M), and finally a maximum relaxation achieved by addition of 10⁻³M isoprenaline. The fall in tension evoked by the test compound was expressed as a percentage of the total relaxation evoked in the presence of 10⁻³ isoprenaline. […]

Take `CC1(C)Oc2ccc(C#N)cc2[C@@H](Nc2cc(Cl)ncn2)[C@@H]1O` (racemic) [El, Trans-6-cyano-4-[(6-chloropyrimidin-4-yl)amino]-3,4-dihydro-2,2-dimethyl-2H-1-benzopyran-3-ol]: the results for the b.p. lower/dose in experiment [1] (dose 0.15mgkg⁻¹) and in experiment [1] (dose 0.3mgkg⁻¹) were 38%/0.15mgkg⁻¹ and 36%/0.3mgkg⁻¹, respectively.

As to `CNc1cc(N[C@@H]2c3cc(C#N)ccc3OC(C)(C)[C@H]2O)ncn1` (racemic) [Example 2], in the experiment on trachea, the “active in test 2. (Bronchodilator Activity)” value was “active”. Also, the “active in test 1. (Antihypertensive Activity)” value in experiment [1] is recorded as “active”.

On to `CC1(C)Oc2ccc(C#N)cc2[C@@H](Nc2cc(N)ncn2)[C@@H]1O` (racemic) [Example 3], for which the “active in test 2. (Bronchodilator Activity)” value in the experiment on trachea is given as “active”. Moreover, the “active in test 1. (Antihypertensive Activity)” value in experiment [1] is on record as “active”.
